Measurements: patent US6713048B2, “Δ9 tetrahydrocannabinol (Δ9 THC) solution metered dose inhalers and methods of use” (Virginia Commonwealth University, priority 1998, dated 2004)
Entries after “also recorded” stand apart in the source; their conditions may differ.

Tests used:
[1] = tested on: Nausea and emesis due to Cancer chemotherapy; conditions: oral THC 15 mg/m^2, cited from earlier work
[2] = in vivo; conditions: for concentration at 20 min: brain
Procedure: (§1) Whether inhalation exposure to Δ^9 THC aerosol would elicit pharmacological effects indicative of cannabinoid activity in mice (Compton, D. R., Rice, K. C., De Costa, B. R., Rzdan, R. K., Melvin, L. S., Johnson, M. R., Martin, B. R., Cannabinoid structure-activity relationships: Correlation of receptor binding and in vivo activities, J Pharmacol Exp Ther, 265:218-226 (1993); Little et al., 1988) was determined.
(§2) Blood and brain levels of Δ^9-THC were determined as follows. Extraction and LC-MS quantification of Δ^9-THC from whole blood and brain tissue were modified from Lichtman, A. H., Poklis, J. L., Wilson, D. M., Martin, B. R., The pharmacological activity of inhalation exposure to marijuana smoke in mice, Drug Alc Depend, 63:107-116 (2001). Particularly, THC and 2H^3-THC were extracted from brain material which contains a high degree of lipids. Acetonitrile was added to the pelletized solids and stored in a freezer overnight to separate the acetonitrile layer (which contained THC/2H^3-THC) from the aqueous layers. The following day the acetonitrile layer was removed. In the Lichtman et al., study, 2 ml of 9:1 NaOH was added and the sample was vortexed. Four ml of 9:1 hexane:ethyl acetate was added and the sample was vortexed and spun […] for 30 minutes. The vials were then centrifuged at 4,000 rpm […] for 10 minutes. The organic layer was removed and evaporated. Upon drying, a derivatizing agent was added and the sample was vortexed, and each sample analyzed by GC/MS. In the present experimentation, the acetonitrile was instead evaporated to dryness under nitrogen. The material was then resolubilized in 0.1 ml methanol. LC-MS identification was used to quantify Δ^9-THC/2H^3-THC in blood and brain matrices. […] Fifty ng of ^2H3-THC (Radian Corporation, Austin, Tex.) was added to the blood sample, brain homogenate, and calibrators as an internal standard. Following an equilibration period, 2.5 ml of cold acetonitrile (HPLC grade, Fisher Scientific, Raleigh, N.C.) was added drop-wise while vortexing. The samples were then centrifuged (Precision Vari-Hi-Speed Centricone, Precision Scientific Co., Chicago, Ill.) at 2500 rpm for 15 minutes to pelletize solids, then stored in the freezer (−20° C.) overnight, allowing the acetonitrile layer to separate from the aqueous layers. The acetonitrile layer was then removed and evaporated to dryness under nitrogen. The Δ^9-THC/^2H3-THC was then resolubilized in 0.1 ml methanol (HPLC grade, Fisher Scientific).
(§3) LC-MS identification was used for quantification of Δ^9-THC and ^2H3-THC in blood and brain matrices using an 85:15 methanol: 1% glacial acetic acid (0.1% formic acid) mobile phase. A guard column was used inline with the standard reverse phase C18 column. The mass spectrometer was run in APCI+mode. Ions analyzed in single ion monitoring mode were 315 for Δ^9-THC and 318 for ^2H3-THC. A calibration curve was constructed for each assay based on linear regression using the peak-area ratios of Δ^9-THC to ^2H3-THC of the extracted calibration samples.

[3] = tested on: Pain due to advanced cancer; conditions: oral 5, 10, 15 or 20 mg THC; 10 patients; cited from earlier work
[4] = tested on: Nausea and emesis due to Cancer chemotherapy; conditions: oral 15 mg THC, 116 patients, cited from earlier work
[5] = tested on: Pain due to advanced cancer; conditions: 10 and 20 mg THC, 60 and 120 codeine; 34 patients; cited from earlier work
[6] = Blood levels of Δ^9-THC by LC-MS; conditions: mouse, whole blood
Procedure: as §1, §2, §3

[7] = 10 mg prochloperzine or placebo

Question: What does the source list for `CCCCCc1cc(O)c2c(c1)OC(C)(C)[C@@H]1CCC(C)=C[C@@H]21` (relative stereo) [Δ^9 THC, (6aR-trans)-6a,7,8,10a-tetrahydro-6,6,9-trimethyl-3-pentyl-6H-dibenzo[b,d]-pyran-1-ol]?
Answer: patients with reduction in chemotherapy-induced nausea and vomiting ([1]; 36 patients refractory to prochlorperazine or thiethylperazine): 64% of patients given THC; side effects ([1]; 36 patients): effects included dysphoria;; brain levels relative to blood levels ([2]; following inhalation, mice): roughly equivalent; also recorded: equivalent concentrations; brain levels higher than those found in blood ([2]; i.v. administration, mice): approximately two to three; Kp at 20 min ([2]; mouse, brain relative to whole blood, iv): 2 to 3; concentration at 20 min ([2]; mouse, inhaled, 20 actuations): 340 ± 36 ng/g; concentration at 20 min ([2]; mouse, inhaled, 40 actuations): 791 ± 94 ng/g; concentration at 20 min ([2]; mouse, inhaled, 60 actuations): 890 ± 151 ng/g; concentration at 20 min ([2]; mouse, iv, 1 mg/kg): 307 ± 28 ng/g; concentration at 20 min ([2]; mouse, iv, 3 mg/kg): 854 ± 42 ng/g; concentration at 20 min ([2]; mouse, iv, 10 mg/kg): 3310 ± 190 ng/g; appetite [3]: appetite stimulation,; mood [3]: elevated mood; pain [3]: Pain relief; antiemetic effect compared with placebo [4, 7]: each greater than placebo;; antiemetic effects, THC vs prochlorperazine [4, 7]: Equal antiemetic effects; CNS side effects compared with prochlorperazine ([4]; 10 mg prochloperzine): considerately more CNS; analgesic potency compared with codeine [5]: greater potency than; degree of analgesia compared with codeine [5]: THC produced a similar; concentration at 20 min ([6]; inhaled, 20 actuations): 409 ± 86 ng/g; concentration at 20 min ([6]; inhaled, 40 actuations): 788 ± 273 ng/g; concentration at 20 min ([6]; inhaled, 60 actuations): 1130 ± 240 ng/g; concentration at 20 min ([6]; iv, 1 mg/kg): 102 ± 6 ng/g; concentration at 20 min ([6]; iv, 3 mg/kg): 365 ± 39 ng/g; concentration at 20 min ([6]; iv, 10 mg/kg): 1320 ± 38 ng/g
